Data as given in patent US10501479B2, “Benzenesulfonyl-asymmetric ureas and medical uses thereof” (HELSINN HEALTHCARE SA, priority 2016, dated 2019).
Read-outs that look alike come from different tables or passages of the source.

Legend:
[1] = molecular target: T1, recombinant human ghrelin receptor (HEK293/GRLN) (Homo sapiens, UniProt Q92847); assay: Ghrelin inverse agonist potency (EC50) with IP-1 (IP-One HTRF) assay; format: cell-based; conditions: IP-1 assay
T1 construct: expressed in transfected cells
How it was run: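 IP-1 accumulation was measured by HTRF (IP1-d2/Tb-cryptate, 620/665 nm read after 1 hour at room temperature) following 1 hour of compound treatment at 37° C. Cells were HEK293 stably expressing human ghrelin receptor, plated a day earlier on Matrigel. Inverse agonist potency was reported as EC50.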

[2] = molecular target: T2, GHSR-1a (HEK293/GHSR1a cell line) (Homo sapiens, UniProt Q92847); assay: Ghrelin antagonist potency (IC50) with calcium FLIPR assay, ghrelin 10 nM; format: cell-based
T2 construct: expressed in transfected cells; host or cells: HEK293/GHSR1a cell line
How it was run: (§1)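 The cells were plated a day ahead and loaded with a calcium-sensitive dye. Test compound was then added and incubated 15 min, followed by ghrelin. Antagonist potency was calculated from inhibition of the response to 10 nM ghrelin, and agonist potency from the calcium rise caused by compound alone.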

[3] = Metabolic stability in human liver microsomes; format: in vitro ADME
Experimental: (§2) Metabolic Stability Study
(§3) The metabolic stability of compounds in human, dog, rat and mouse liver microsomes was performed according the experimental conditions reported below:
(§4) • a) Prepare the following 5 stock solutions: • 1. Test compound stock solutions: dilute 10 mM solution of dextromethorphan (Dtr) in DMSO, 10 mM solution of diphenhydramine (DPA) in DMSO, 10 mM solution of omeprazole (Ome) in DMSO, 10 mM solution of verapamil (Ver) in DMSO, and 10 mM of an inverse agonist compound in DMSO to 0.25 mM solution each with acetonitrile/water (70/30). • 2. Buffer: 100 mM potassium phosphate Buffer (PBS) at pH 7.4 • 3. Liver microsomes (20 mg/ml): Thaw in 37° C. water bath quickly • 4. 2000 μL: of NADPH regenerating system (1.3 mM). Place this system on ice before use:
(§5) • 5. […] The test compound concentration in the wells, measured by LC-MS/MS, represents the concentration at time=0. • f) To determine the test compound concentration when t≠0, pre-incubate the NADPH regenerating system and the incubation plate containing the remaining 320 μL of incubation mixture (microsomes protein and test compound) for 5 minutes at 37° C. • g) Start the incubation reaction by adding 80 μL NADPH regenerating system to each well containing the remaining 320 μL incubation mixture. • h) After 10 min., 30 min., and 90 min. of incubation at 37° C., transfer 100 μL of the incubation mixture (microsomes protein, test compound, and NADPH) into the wells of a stop plate pre-filled with 300 μL of the cold quench solution. Shake well. • i) Centrifuge the stop plate at 5000×g for 10 minutes. Collect and dilute the supernatant 3 times with distilled water. Sample and analyze the test compound concentration for all the wells by LC-MS/MS. Animal PK Studies via i.v. (intravenous), p.o. (orally) and s.c. (subcutaneous) administrations

[4] = Metabolic stability in mouse liver microsomes; format: in vitro ADME
Experimental: as §2, §3, §4, §5

[5] = molecular target: T2, GHSR-1a (HEK293/GHSR1a cell line); assay: Ghrelin agonist potency (EC50) with calcium FLIPR assay; format: cell-based
How it was run: as §1

[6] = inverse agonist potency, read-out: EC50 (Activity)
[7] = ghrelin antagonist potency, read-out: IC50 (Activity)
[8] = HEK293/GRLN, read-out: Activity EC50 (ghrelin inverse agonist potency)
[9] = HEK293/GHSR1a, read-out: Activity EC50/EMax: EC50 (ghrelin agonist potency)
[10] = HEK293/GHSR1a, ghrelin 10 nM, read-out: Activity IC50 (ghrelin antagonist potency)

T2 sequence (Q92847 whole entry): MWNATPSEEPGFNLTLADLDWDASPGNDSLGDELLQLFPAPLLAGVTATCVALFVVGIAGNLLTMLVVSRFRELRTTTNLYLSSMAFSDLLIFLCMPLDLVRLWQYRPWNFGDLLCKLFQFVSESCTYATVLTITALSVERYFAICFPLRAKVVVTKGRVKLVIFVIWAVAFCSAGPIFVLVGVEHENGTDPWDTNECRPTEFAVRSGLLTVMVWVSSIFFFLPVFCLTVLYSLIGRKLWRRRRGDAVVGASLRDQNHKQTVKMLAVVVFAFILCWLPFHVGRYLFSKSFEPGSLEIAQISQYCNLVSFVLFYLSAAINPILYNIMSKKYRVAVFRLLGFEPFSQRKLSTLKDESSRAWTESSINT
T1 sequence (Q92847 whole entry): as above

SMILES	EC50 [1, 6] [nM]	IC50 [2, 7] [nM]	Metabolic Stability Study H = human [3]	Metabolic Stability Study M = mouse [4]	EC50 [1, 8] [nM]	EC50 [5, 9] [nM]	IC50 [2, 10] [nM]	EC50 ([1]; ghrelin inverse agonist potency, read-out: Activity EC50) [nM]	EC50 ([5]; ghrelin agonist potency, read-out: Activity EC50/EMax) [nM]
CC(NC(=O)Nc1ccc(S(=O)(=O)Cc2ccc3c(c2)CN(Cc2ccccc2)C3)cc1)c1ccccc1 (stereo not drawn) [H1219, 1-(4-(((2-benzylisoindolin-5-yl)methyl)sulfonyl)phenyl)-3-(1-phenylethyl)urea]	163	7.77	H > 500 M > 500 R = not reported D = not reported μL/min/mg	H > 500 M > 500 R = not reported D = not reported μL/min/mg					
CCN1Cc2ccc(CS(=O)(=O)c3ccc(NC(=O)NC(C)c4ccccc4)cc3)cc2C1 (stereo not drawn) [H1221, 1-(4-(((2-ethylisoindolin-5-yl)methyl)sulfonyl)phenyl)-3-(1-phenylethyl)urea]	38.7	8.1	111.2 µL/min/mg	107.7 µL/min/mg					
CN1Cc2ccc(CS(=O)(=O)c3ccc(NC(=O)NC(c4ccccc4)C(F)(F)F)cc3)cc2C1 (stereo not drawn) [H1227, 1-(4-(((2-methylisoindolin-5-yl)methyl)sulfonyl)phenyl)-3-(2,2,2-trifluoro-1-phenylethyl)urea]	175	38.4	99.4 µL/min/mg	79.9 µL/min/mg					
CCN1Cc2ccc(C(C)S(=O)(=O)c3ccc(NC(=O)NC(C)c4ccccc4)cc3)cc2C1 (stereo not drawn) [H1234, 1-(4-((1-(2-ethylisoindolin-5-yl)ethyl)sulfonyl)phenyl)-3-(1-phenylethyl)urea]	15.4	42.6	149.8 µL/min/mg	122.7 µL/min/mg					
CCC(NC(=O)Nc1ccc(S(=O)(=O)Cc2ccc3c(c2)CN(C)C3)cc1)c1ccccc1 (stereo not drawn) [H1235, 1-(4-(((2-methylisoindolin-5-yl)methyl)sulfonyl)phenyl)-3-(1-phenylpropyl)urea]	6.1	32	102.4 µL/min/mg	87.1 µL/min/mg					
Cc1oc(=O)oc1COC(=O)N1Cc2ccc(CS(=O)(=O)c3ccc(NC(=O)NC(C)c4ccccc4)cc3)cc2C1 (stereo not drawn) [H1256, (5-methyl-2-oxo-1,3-dioxol-4-yl)methyl 5-(((4-(3-(1-phenylethyl)ureido)phenyl)sulfonyl)methyl)isoindoline-2-carboxylate]			268.4 µL/min/mg	272.6 µL/min/mg	124	> 30000	90		
CC(NC(=O)Nc1ccc(S(=O)(=O)Cc2ccc3c(c2)CNC3)cc1)c1cccc(Cl)c1 (stereo not drawn) [H1260, 1-(1-(3-chlorophenyl)ethyl)-3-(4-((isoindolin-5-ylmethyl)sulfonyl)phenyl)urea]			38.9 µL/min/mg	24.7 µL/min/mg	4.4	> 30000	3.7		
CC(NC(=O)Nc1ccc(S(=O)(=O)Cc2ccc3c(c2)CN(C)C3)cc1)c1cccc(Cl)c1 (stereo not drawn) [H1266, 1-(1-(3-chlorophenyl)ethyl)-3-(4-(((2-methylisoindolin-5-yl)methyl)sulfonyl)phenyl)urea]			169.4 µL/min/mg	106.1 µL/min/mg	19.1	> 30000	24.2		
CC(NC(=O)Nc1ccc(S(=O)(=O)Cc2ccc3c(c2)CN(C)C3)cc1)c1ccccc1Cl (stereo not drawn) [H1267, 1-(1-(2-chlorophenyl)ethyl)-3-(4-(((2-methylisoindolin-5-yl)methyl)sulfonyl)phenyl)urea]			109.8 µL/min/mg	147.8 µL/min/mg	4.7	> 30000	9.2		
CC(NC(=O)Nc1ccc(S(=O)(=O)Cc2ccc3c(c2)CN(C)C3)cc1)c1ccc(F)cc1 (stereo not drawn) [H1268, 1-(1-(4-fluorophenyl)ethyl)-3-(4-(((2-methylisoindolin-5-yl)methyl)sulfonyl)phenyl)urea]			108.7 µL/min/mg	60.5 µL/min/mg	29.9	> 30000	83.2		
CC(NC(=O)Nc1ccc(S(=O)(=O)Cc2ccc3c(c2)CNC3)cc1)c1cccc(F)c1 (stereo not drawn) [H1269, 1-(1-(3-fluorophenyl)ethyl)-3-(4-((isoindolin-5-ylmethyl)sulfonyl)phenyl)urea]			25.7 µL/min/mg	23.6 µL/min/mg	8.8	> 30000	24		
CC(NC(=O)Nc1ccc(S(=O)(=O)Cc2ccc3c(c2)CNC3)cc1)c1ccccc1F (stereo not drawn) [H1272, 1-(1-(2-fluorophenyl)ethyl)-3-(4-((isoindolin-5-ylmethyl)sulfonyl)phenyl)urea]			18.4 µL/min/mg	18.6 µL/min/mg	5.3	> 30000	23.5		
CC(NC(=O)Nc1ccc(S(=O)(=O)Cc2ccc(CN3CCCC3)cc2)cc1)c1ccccc1 (stereo not drawn) [H1276, 1-(1-phenylethyl)-3-(4-((4-(pyrrolidin-1-ylmethyl)benzyl)sulfonyl)phenyl)urea]			109.7 µL/min/mg	247 µL/min/mg	23.4	> 30000	76		
CCc1ccc(Cl)c(C(C)NC(=O)Nc2ccc(S(=O)(=O)Cc3ccc4c(c3)CNC4)cc2)c1 (stereo not drawn) [H1281, 1-(1-(2-chloro-5-ethylphenyl)ethyl)-3-(4-((isoindolin-5-ylmethyl)sulfonyl)phenyl)urea]			63.8 µL/min/mg	47.8 µL/min/mg	15.3	> 30000	39		
CCc1ccc(Cl)c(C(C)NC(=O)Nc2ccc(S(=O)(=O)Cc3ccc4c(c3)CN(C)C4)cc2)c1 (stereo not drawn) [H1286, 1-(1-(2-chloro-5-ethylphenyl)ethyl)-3-(4-(((2-methylisoindolin-5-yl)methyl)sulfonyl)phenyl)urea]			251.8 µL/min/mg	162.4 µL/min/mg	24.3	> 30000	39.5		
C[C@@H](NC(=O)Nc1ccc(S(=O)(=O)Cc2ccc3c(c2)CN(C)C3)cc1)c1ccccc1 [H1300, (R)-1-(4-(((2-methylisoindolin-5-yl)methyl)sulfonyl)phenyl)-3-(1-phenylethyl)urea]			124.3 µL/min/mg	42.1 µL/min/mg		> 30000			
C[C@@H](NC(=O)Nc1ccc(S(=O)(=O)Cc2ccc3c(c2)CN(C)C3)cc1)c1ccccc1 [H1356, (R)-1-(4-(((2-methylisoindolin-5-yl)methyl)sulfonyl)phenyl)-3-(1-phenylethyl)urea]			382.5 µL/min/mg	126 µL/min/mg		> 30000			
CC(NC(=O)Nc1c(F)cc(S(=O)(=O)Cc2ccc3c(c2)CNC3)cc1F)c1ccccc1.O=C(O)C(F)(F)F (stereo not drawn) [H1404, 1-(2,6-difluoro-4-((isoindolin-5-ylmethyl)sulfonyl)phenyl)-3-(1-phenylethyl)urea]			10 µL/min/mg	19 µL/min/mg		> 30000	1620		
COc1cc(S(=O)(=O)Cc2ccc3c(c2)CCNC3)ccc1NC(=O)N[C@H](C)c1cccc(Cl)c1Cl [H1481, (R)-1-(1-(2,3-dichlorophenyl)ethyl)-3-(2-methoxy-4-(((1,2,3,4-tetrahydroisoquinolin-6-yl)methyl)sulfonyl)phenyl)urea]			< 10 µL/min/mg	13.2 µL/min/mg				0.2	> 30000
